The record followed here is patent US20230040770A1, “HETEROCYCLIC COMPOUND AND USE THEREOF” (TAKEDA PHARMACEUTICAL COMPANY LIMITED, priority 2019, published 2023).

For this experiment, the target named is T1, human orexin type 2 receptor (Homo sapiens, UniProt O43614).
T1 construct: expressed in transfected cells
T1 sequence (O43614 1-444): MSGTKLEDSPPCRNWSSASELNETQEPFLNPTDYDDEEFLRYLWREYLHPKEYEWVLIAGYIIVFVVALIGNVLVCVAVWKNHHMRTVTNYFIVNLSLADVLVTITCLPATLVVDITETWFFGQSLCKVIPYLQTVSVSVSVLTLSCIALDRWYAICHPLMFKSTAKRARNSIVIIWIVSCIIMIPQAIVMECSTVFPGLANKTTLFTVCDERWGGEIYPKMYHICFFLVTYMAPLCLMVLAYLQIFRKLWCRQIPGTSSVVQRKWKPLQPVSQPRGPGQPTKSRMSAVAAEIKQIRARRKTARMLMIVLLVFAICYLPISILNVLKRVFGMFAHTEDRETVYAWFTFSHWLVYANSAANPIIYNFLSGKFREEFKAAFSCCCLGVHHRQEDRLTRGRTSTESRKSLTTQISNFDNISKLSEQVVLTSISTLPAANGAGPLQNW
Briefly: Measurement of orexin type 2 receptor agonist activity (calcium indicator fluorescence, CHO cells forcibly expressing human OX2 receptor). The note with it: compound at 3 μM; 0% = DMSO, 100% = orexin A (human) 10 nM. The format is cell-based. In outline: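 Agonist response normalised between vehicle (0%) and orexin A at 10 nM final (100%), from kinetic Fluo-4 calcium signals recorded for about 2 min after compound addition. Cells: stable human OX2R CHO clone, dye-loaded 30 min at 37 °C plus 30 min at room temperature.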

Consider `CS(=O)(=O)N[C@@H]1[C@H](Cc2cccc(-c3cccc(F)c3F)c2F)N(C(=O)C2CC(F)C2)CC1(F)F` (stereo partly drawn) [Example 435, N-{(2S,3R)-4,4-difluoro-1-(3-fluorocyclobutane-1-carbonyl)-2-[(2,2′,3′-trifluoro[1,1′-biphenyl]-3-yl)methyl]pyrrolidin-3-yl}methanesulfonamide], for which the “OX2R agonist activity (3 μM, %)” value is 88%.
For `CCS(=O)(=O)N[C@@H]1[C@H](Cc2cccc(-c3cc(F)ccc3F)c2F)N(C(=O)[C@H]2C[C@@H](F)C2)CC1(F)F` [Example 381, N-{(2S,3R)-4,4-difluoro-1-((1s,3R)-3-fluorocyclobutane-1-carbonyl)-2-[(2,2′,5′-trifluoro[1,1′-biphenyl]-3-yl)methyl]pyrrolidin-3-yl}ethanesulfonamide] the value was 95%; for `O=C(C1CCO1)N1C[C@H](F)[C@H](NS(=O)(=O)C2CC2)[C@@H]1Cc1cccc(-c2cc(F)ccc2F)c1F` (stereo partly drawn) [Example 495, N-{(2S,3R,4S)-4-fluoro-1-(oxetane-2-carbonyl)-2-[(2,2′,5′-trifluoro[1,1′-biphenyl]-3-yl)methyl]pyrrolidin-3-yl}cyclopropanesulfonamide], 92%; for `CC(C)C(=O)N1CC(F)(F)[C@H](NS(C)(=O)=O)[C@@H]1Cc1cccc(-c2ccccc2)c1F` [Example 77, N-[(2S,3R)-4,4-difluoro-2-[(2-fluoro[1,1′-biphenyl]-3-yl)methyl]-1-(2-methylpropanoyl)pyrrolidin-3-yl]methanesulfonamide], 95%.
For `CS(=O)(=O)N[C@@H]1[C@H](Cc2cccc(-c3ccccc3)c2F)N(C(=O)C2(O)CCC2)CC1(F)F` [Example 76, N-[(2S,3R)-4,4-difluoro-2-[(2-fluoro[1,1′-biphenyl]-3-yl)methyl]-1-(1-hydroxycyclobutane-1-carbonyl)pyrrolidin-3-yl]methanesulfonamide] the value was 98%.
For `CCS(=O)(=O)N[C@@H]1[C@H](Cc2cccc(-c3cc(F)ccc3F)c2F)N(C(=O)[C@H]2C[C@H](F)C2)CC1(F)F` [Example 376, N-{(2S,3R)-4,4-difluoro-1-((1r,3S)-3-fluorocyclobutane-1-carbonyl)-2-[(2,2′,5′-trifluoro[1,1′-biphenyl]-3-yl)methyl]pyrrolidin-3-yl}ethanesulfonamide] the value was 99%; for `CCS(=O)(=O)N[C@H]1[C@@H](F)CN(C(=O)C2CCO2)[C@H]1Cc1cccc(-c2cccc(Cl)c2)c1F` (stereo partly drawn) [Example 422, N-[(2S,3R,4S)-2-[(3′-chloro-2-fluoro[1,1′-biphenyl]-3-yl)methyl]-4-fluoro-1-(oxetane-2-carbonyl)pyrrolidin-3-yl]ethanesulfonamide], 102%.
With `CC(C)(O)C(=O)N1C[C@H](F)[C@H](NS(=O)(=O)C2CC2)[C@@H]1Cc1cccc(-c2cc(F)cc(F)c2)c1F` [Example 370, N-{(2S,3R,4S)-4-fluoro-1-(2-hydroxy-2-methylpropanoyl)-2-[(2,3′,5′-trifluoro[1,1′-biphenyl]-3-yl)methyl]pyrrolidin-3-yl}cyclopropanesulfonamide], the “OX2R agonist activity (3 μM, %)” value is 91%.
As for `O=C(C1CCO1)N1CC(F)(F)[C@H](NS(=O)(=O)C2CC2)[C@@H]1Cc1cccc(-c2cccc(F)c2)c1F` (stereo partly drawn) [Example 129, N-[(2S,3R)-2-[(2,3′-difluoro[1,1′-biphenyl]-3-yl)methyl]-4,4-difluoro-1-(oxetane-2-carbonyl)pyrrolidin-3-yl]cyclopropanesulfonamide], the “OX2R agonist activity (3 μM, %)” value came to 92%.
Regarding `CCS(=O)(=O)N[C@H]1[C@@H](F)CN(C(=O)C2CCO2)[C@H]1Cc1cccc(-c2cccc(C)c2F)c1F` (stereo partly drawn) [Example 499, N-[(2S,3R,4S)-2-[(2,2′-difluoro-3′-methyl[1,1′-biphenyl]-3-yl)methyl]-4-fluoro-1-(oxetane-2-carbonyl)pyrrolidin-3-yl]ethanesulfonamide], the “OX2R agonist activity (3 μM, %)” value was 96%.
For `CCS(=O)(=O)N[C@H]1[C@@H](F)CN(C(=O)C2CC2)[C@H]1Cc1cccc(-c2cccc(Cl)c2F)c1F` [Example 520, N-[(2S,3R,4S)-2-[(3′-chloro-2,2′-difluoro[1,1′-biphenyl]-3-yl)methyl]-1-(cyclopropanecarbonyl)-4-fluoropyrrolidin-3-yl]ethanesulfonamide] the value was 94%; for `O=C(C1CCO1)N1CC(F)(F)[C@H](NS(=O)(=O)C2CC2)[C@@H]1Cc1cccc(-c2ccccc2)c1F` (stereo partly drawn) [Example 124, N-[(2S,3R)-4,4-difluoro-2-[(2-fluoro[1,1′-biphenyl]-3-yl)methyl]-1-(oxetane-2-carbonyl)pyrrolidin-3-yl]cyclopropanesulfonamide], 89%.
The figure for `CN(C)S(=O)(=O)N[C@@H]1[C@H](Cc2cccc(-c3ccccc3)c2F)N(C(=O)N2CCC2)CC1(F)F` [Example 139, N′-{(2S,3R)-1-(azetidine-1-carbonyl)-4,4-difluoro-2-[(2-fluoro[1,1′-biphenyl]-3-yl)methyl]pyrrolidin-3-yl}-N,N-dimethylsulfuric diamine] is 93%.
The figure for `CCS(=O)(=O)N[C@H]1[C@@H](F)CN(C(=O)C23CC(C2)C3)[C@H]1Cc1cccc(-c2cc(F)ccc2F)c1F` [Example 306, N-{(2S,3R,4S)-1-(bicyclo[1.1.1]pentane-1-carbonyl)-4-fluoro-2-[(2,2′,5′-trifluoro[1,1′-biphenyl]-3-yl)methyl]pyrrolidin-3-yl}ethanesulfonamide] is 89%; for `CCS(=O)(=O)N[C@H]1[C@@H](F)CN(C(=O)C(C)(C)O)[C@H]1Cc1cccc(-c2cc(Cl)ccc2F)c1F` [Example 348, N-[(2S,3R,4S)-2-[(5′-chloro-2,2′-difluoro[1,1′-biphenyl]-3-yl)methyl]-4-fluoro-1-(2-hydroxy-2-methylpropanoyl)pyrrolidin-3-yl]ethanesulfonamide] it is 103%; for `CC(C)(O)C(=O)N1C[C@H](F)[C@H](NS(C)(=O)=O)[C@@H]1Cc1cccc(-c2cccc(Cl)c2)c1F` [Example 388, N-[(2S,3R,4S)-2-[(3′-chloro-2-fluoro[1,1′-biphenyl]-3-yl)methyl]-4-fluoro-1-(2-hydroxy-2-methylpropanoyl)pyrrolidin-3-yl]methanesulfonamide] it is 89%.
On to `CC(C)(O)C(=O)N1CC(F)(F)[C@H](NS(C)(=O)=O)[C@@H]1Cc1cccc(-c2cccc(Cl)c2)c1F` [Example 44, N-[(2S,3R)-2-[(3′-chloro-2-fluoro[1,1′-biphenyl]-3-yl)methyl]-4,4-difluoro-1-(2-hydroxy-2-methylpropanoyl)pyrrolidin-3-yl]methanesulfonamide], for which the “OX2R agonist activity (3 μM, %)” value came out at 98%.
For the compound `CCS(=O)(=O)N[C@H]1[C@@H](F)CN(C(=O)C2CC2)[C@H]1Cc1cccc(-c2cccc(C)c2)c1F` [Example 514, N-{(2S,3R,4S)-1-(cyclopropanecarbonyl)-4-fluoro-2-[(2-fluoro-3′-methyl[1,1′-biphenyl]-3-yl)methyl]pyrrolidin-3-yl}ethanesulfonamide], the “OX2R agonist activity (3 μM, %)” value stood at 95%.
For `CCS(=O)(=O)N[C@H]1[C@@H](F)CN(C(=O)N(C)C)[C@H]1Cc1cccc(-c2ccccc2)c1F` [Example 295, (2S,3R,4S)-3-[(ethanesulfonyl)amino]-4-fluoro-2-[(2-fluoro[1,1′-biphenyl]-3-yl)methyl]-N,N-dimethylpyrrolidine-1-carboxamide] the value was 95%; for `CS(=O)(=O)N[C@H]1[C@@H](F)CN(C(=O)C2CCO2)[C@H]1Cc1cccc(-c2cc(F)cc(F)c2)c1F` (stereo partly drawn) [Example 324, N-{(2S,3R,4S)-4-fluoro-1-(oxetane-3-2-carbonyl)-2-[(2,3′,5′-trifluoro[1,1′-biphenyl]-3-yl)methyl]pyrrolidin-3-yl}methanesulfonamide], 91%; for `CCS(=O)(=O)N[C@@H]1[C@H](Cc2cccc(-c3ccc(F)c(C)c3F)c2F)N(C(=O)C2CCO2)CC1(F)F` (stereo partly drawn) [Example 474, N-{(2S,3R)-4,4-difluoro-1-(oxetane-2-carbonyl)-2-[(2,2′,4′-trifluoro-3′-methyl[1,1′-biphenyl]-3-yl)methyl]pyrroldiin-3-yl}ethanesulfonamide], 96%.
The figure for `O=C(C1CC1)N1C[C@H](F)[C@H](NS(=O)(=O)C2CC2)[C@@H]1Cc1cccc(-c2cc(F)ccc2F)c1F` [Example 379, N-{(2S,3R,4S)-1-(cyclopropanecarbonyl)-4-fluoro-2-[(2,2′,5′-trifluoro[1,1′-biphenyl]-3-yl)methyl]pyrrolidin-3-yl}cycloproapnesulfonamide] is 93%; for `CCS(=O)(=O)N[C@H]1[C@@H](F)CN(C(=O)C2CCO2)[C@H]1Cc1cccc(-c2cccc(Cl)c2F)c1F` (stereo partly drawn) [Example 423, N-[(2S,3R,4S)-2-[(3′-chloro-2,2′-difluoro[1,1′-biphenyl]-3-yl)methyl]-4-fluoro-1-(oxetane-2-carbonyl)pyrrolidin-3-yl]ethanesulfonamide] it is 90%.
On to `CN(C)C(=O)N1C[C@H](F)[C@H](NS(=O)(=O)C2CC2)[C@@H]1Cc1cccc(-c2cccc(F)c2)c1F` [Example 387, (2S,3R,4S)-3-[(cyclopropanesulfonyl)amino]-2-[(2,3′-difluoro[1,1′-biphenyl]-3-yl)methyl]-4-fluoro-N,N-dimethylpyrrolidine-1-carboxamide], for which the “OX2R agonist activity (3 μM, %)” value came to 85%.
